Measured values from US5658913A, “Chemopreventive compounds and a preparation method and use thereof” (Kim; Nak Doo, priority 1993, dated 1997).

Key:
[1] = system: enzymes involved in phase II reactions; details: literature; cited from earlier work
[2] = system: p-nitrophenol hydroxylase; test: p-Nitrophenol hydroxylase activity in combination with INAH (Experimental Example 2(2)); assay type: in vivo, Sprague-Dawley rat; details: INAH alone = 100%; INAH plus compound, each 200 mg/kg i.p.
Method: Thus, 1 mg of microsomes and 1mM p-nitrophenol were added to 0.6 ml of 0.1M potassium phosphate buffer(pH 6.8) to make the total volume of 0.9 ml. The resulting mixture was preliminarily reacted in a 37° C. incubator for 2 minutes and started to react while adding 1 mM NADPH(0.1 ml). After 3 minutes, 0.5 ml of 0.6N perchloric acid was added to develop a color and the absorbance at 546 nm was measured at once. The enzyme activity was expressed in terms of mole concentration of 4-nitrocatechol, the product of reaction for 1 minute.
(§1) In order to examine the effect of the compound of the present invention on the activity of the enzymes involved in phase I reaction when administered in combination with INAH, the experiments were carried out as follows:
(§2) Eight groups of Sprague-Dawley rat weighing 190±30 g were intraperitoneally administered with INAH(Group 1), or INAH plus the compounds of Examples 2 to 8(Groups 2 to 8), each in a dose of 200 mg/kg. The inventive compounds and INAH were diluted with corn oil and PBS respectively, and the test compounds were administered just after administering INAH.
(§3) The changes in the activity of p-nitrophenol hydroxylase and aniline hydroxylase were measured by following the same procedure as in Experimental Example 1(2-1) and (2-2). The activity of enzymes was determined by considering the activity of enzyme when INAH alone was administered as 100%.

[3] = system: p-nitrophenol hydroxylase; test: as above; assay type: in vivo, Sprague-Dawley rat; details: for p-Nitrophenol hydrolase, Amount: INAH 200 mg/kg i.p., alone or plus compound 200 mg/kg; for inhibition of expression of p-nitrophenol hydroxylase induced by INAH: INAH plus compound, each 200 mg/kg i.p., in words
[4] = system: Glutathion S-transferase (GST); test: GST activity, administered alone or in combination with INAH (Experimental Example 4(2)); assay type: in vivo, Sprague-Dawley rat; details: for induction of expression of glutathione S-transferase when INAH is administered: in words; for increase of expression of glutathione S-transferase: Table 3
Method: Thus, to 25 μg(0.1 ml) of cytosol protein were added 0.1 mM […] and 1.0 mM glutathione as substrates, and 0.1M potassium phosphate were added to make the total volume of 1.0 ml(pH 6.4). The resulting mixture was allowed to stand at room temperature for 2 minutes and measured for its absorbance at 340 nm at intervals of 15 seconds during the period of 1 minute. As a reference, a cytosol protein denatured by heating was used. The activity of GST was calculated by measuring the change of absorbance for the period of 1 minute and employing the extinction coefficient of 9.6 mM^-1 cm^-1.
In order to examine the effect of the compound of the present invention on the activity of the enzymes involved in phase II reaction when administered alone or in combination with INAH, the experiments were carried out as follows:
Sixteen groups of Sprague-Dawley rat weighing 190±30 g were intraperitoneally administered with corn oil(Group 1), compounds of Examples 2 to 8(Groups 2 to 8), INAH(Group 9), or INAH plus the compounds of Examples 2 to 8(Groups 10 to 16), each in a dose of 200 mg/kg. The inventive compounds and INAH were diluted with corn oil, and the test compounds were administered just after administering INAH.
The change in the activity of GST was measured by following the same procedure as in Experimental Example 3(2). The activity of enzyme was determined by considering the activity of enzyme when corn oil or INAH alone was administered as 100%.

aniline hydroxylase = test: Aniline hydroxylase activity in combination with INAH (Experimental Example 2(2)); assay type: in vivo, Sprague-Dawley rat; details: for Aniline hydroxylase, Amount: INAH 200 mg/kg i.p., alone or plus compound 200 mg/kg; for Aniline hydroxylase, Activity: INAH alone = 100%; for Aniline hydroxylase, Activity / inhibition of expression of aniline hydroxylase induced by INAH: INAH plus compound, each 200 mg/kg i.p.; for inhibition of expression of aniline hydroxylase induced by INAH: in words
Method: Thus, 1 mg of microsomes and 5 mM aniline were added to 0.6 ml of 0.1M potassium phosphate buffer(pH 6.8) to make the total volume of 0.9 ml. 1 mM NADPH was added to make the total volume of 1.0 ml and the resulting mixture was reacted at 37° C. After 10 minutes, 20% trichloroacetic acid was added to stop the reaction and the reaction mixture was centrifuged. To 1 ml of supernatant were added 0.1 ml of 5% phenol and 0.1 ml of 2.5N sodium carbonate, dissolved in 0.1N NaOH. The mixture was allowed to stand for 30 minutes to develop a color and the absorbance at 630 nm was measured at once. The enzyme activity was expressed in terms of mole concentration of 4-aminophenol, the product of reaction for 1 minute.
as §1, §2, §3

P450 2E1 = test: Immunoblot analysis of P-450 2E1 expression when administered together with INAH (Experimental Example 2(1)); assay type: in vivo, Sprague-Dawley rat; details: 200 mg/kg i.p. plus INAH 200 mg/kg; FIG. 5
Method: To the first group as a control group, corn oil was administered intraperitoneally in an amount of 0.1 ml/200 g body weight. The second group was administered intraperitoneally INAH diluted with PBS in a dose of 200 mg/kg body weight. […] The hepatic microsomes were separated and subjected to Western blot analysis on SDS-PAGE by following the same procedure as in the above Experimental Example 1 (1).

cancers = details: literature; cited from earlier work
cytochrome P-450 2E1 = details: cited from earlier work; for effect on cytochrome P-450 2E1 expression: literature / inventors' submitted paper
[5] = INAH alone or INAH plus compound, each 200 mg/kg i.p.
[6] = INAH plus compound, each 200 mg/kg i.p., INAH alone = 100%
[7] = compound alone, 200 mg/kg i.p., corn oil = 100%

2(3)-tert-butyl-4-hydroxyanisole [butylhydroxyanisole]
induction of enzymes involved in phase II reactions [1]: shows an anti-cancer activity by inducing enzymes involved in phase II reactions

c1ccc(CSc2cnccn2)cc1 [Example 2, 2-(benzylthio)pyrazine]
p-Nitrophenol hydrolase, Activity [2]: 78% | p-Nitrophenol hydrolase, Amount [3]: 4.52 nmol/min/mg protein | Glutathion S-transferase, Amount [4, 5]: 2.675 nmol/min/mg protein | Glutathion S-transferase, Activity [4, 6]: 133% | Glutathion S-transferase, Amount ([4]; compound alone, 200 mg/kg i.p.): 2.533 nmol/min/mg protein | Glutathion S-transferase, Activity [4, 7]: 147% | Aniline hydroxylase, Amount (aniline hydroxylase): 1.070 nmol/min/mg protein | Aniline hydroxylase, Activity (aniline hydroxylase): 74%

CC(C)=CCSc1cnccn1 [Example 3, 2-(3-methyl-2-butenylthio)pyrazine]
p-Nitrophenol hydrolase, Activity [2]: 73% | p-Nitrophenol hydrolase, Amount [3]: 4.23 nmol/min/mg protein | Glutathion S-transferase, Amount [4, 5]: 3.071 nmol/min/mg protein | Glutathion S-transferase, Activity [4, 6]: 153% | induction of expression of glutathione S-transferase when INAH is administered ([4]; INAH plus compound): strongly induce expression of enzyme | Glutathion S-transferase, Amount ([4]; compound alone, 200 mg/kg i.p.): 2.708 nmol/min/mg protein | Glutathion S-transferase, Activity [4, 7]: 157% | Aniline hydroxylase, Amount (aniline hydroxylase): 1.108 nmol/min/mg protein | Aniline hydroxylase, Activity (aniline hydroxylase): 76%

C(=Cc1ccccc1)CSc1cnccn1 [Example 4, 2-(cinnamylthio)pyrazine]
p-Nitrophenol hydrolase, Activity [2]: 64% | p-Nitrophenol hydrolase, Amount [3]: 3.69 nmol/min/mg protein | Glutathion S-transferase, Amount [4, 5]: 2.683 nmol/min/mg protein | Glutathion S-transferase, Activity [4, 6]: 134% | Glutathion S-transferase, Amount ([4]; compound alone, 200 mg/kg i.p.): 2.892 nmol/min/mg protein | Glutathion S-transferase, Activity [4, 7]: 168% | Aniline hydroxylase, Amount (aniline hydroxylase): 0.972 nmol/min/mg protein | Aniline hydroxylase, Activity (aniline hydroxylase): 67%

c1coc(CSc2cnccn2)c1 [Example 5, 2-(furfurylthio)pyrazine]
p-Nitrophenol hydrolase, Activity [2]: 61% | p-Nitrophenol hydrolase, Amount [3]: 3.53 nmol/min/mg protein | Glutathion S-transferase, Amount [4, 5]: 3.029 nmol/min/mg protein | Glutathion S-transferase, Activity [4, 6]: 151% | induction of expression of glutathione S-transferase when INAH is administered ([4]; INAH plus compound): strongly induce expression of enzyme | Glutathion S-transferase, Amount ([4]; compound alone, 200 mg/kg i.p.): 2.996 nmol/min/mg protein | increase of expression of glutathione S-transferase ([4]; compound alone, 200 mg/kg i.p.): ≥ 70% | Glutathion S-transferase, Activity [4, 7]: 174% | Aniline hydroxylase, Amount (aniline hydroxylase): 0.972 nmol/min/mg protein | Aniline hydroxylase, Activity (aniline hydroxylase): 67%

C=C(C)CCSc1cnccn1 [Example 6, 2-(3-methyl-3-butenylthio)pyrazine]
p-Nitrophenol hydrolase, Activity [2]: 56% | p-Nitrophenol hydrolase, Amount [3]: 3.25 nmol/min/mg protein | Glutathion S-transferase, Amount [4, 5]: 2.375 nmol/min/mg protein | Glutathion S-transferase, Activity [4, 6]: 118% | Glutathion S-transferase, Amount ([4]; compound alone, 200 mg/kg i.p.): 2.558 nmol/min/mg protein | Glutathion S-transferase, Activity [4, 7]: 148% | Aniline hydroxylase, Amount (aniline hydroxylase): 0.879 nmol/min/mg protein | Aniline hydroxylase, Activity (aniline hydroxylase): 60%

CC=CCSc1cnccn1 [Example 7, 2-(2-butenylthio)pyrazine]
p-Nitrophenol hydrolase, Activity [2]: 40% | p-Nitrophenol hydrolase, Amount [3]: 2.33 nmol/min/mg protein | inhibition of expression of p-nitrophenol hydroxylase induced by INAH [3]: superior inhibitory action | Glutathion S-transferase, Amount [4, 5]: 2.263 nmol/min/mg protein | Glutathion S-transferase, Activity [4, 6]: 113% | Glutathion S-transferase, Amount ([4]; compound alone, 200 mg/kg i.p.): 3.046 nmol/min/mg protein | increase of expression of glutathione S-transferase ([4]; compound alone, 200 mg/kg i.p.): ≥ 70% | Glutathion S-transferase, Activity [4, 7]: 177% | Aniline hydroxylase, Amount (aniline hydroxylase): 0.712 nmol/min/mg protein | Aniline hydroxylase, Activity (aniline hydroxylase): 49% | inhibition of expression of aniline hydroxylase induced by INAH (aniline hydroxylase): superior inhibitory action

C=CC(C)Sc1cnccn1 (stereo not drawn) [Example 8]
p-Nitrophenol hydrolase, Activity [2]: 40% | p-Nitrophenol hydrolase, Amount [3]: 2.33 nmol/min/mg protein | inhibition of expression of p-nitrophenol hydroxylase induced by INAH [3]: superior inhibitory action | Glutathion S-transferase, Amount [4, 5]: 2.808 nmol/min/mg protein | Glutathion S-transferase, Activity [4, 6]: 140% | induction of expression of glutathione S-transferase when INAH is administered ([4]; INAH plus compound): strongly induce expression of enzyme | Glutathion S-transferase, Amount ([4]; compound alone, 200 mg/kg i.p.): 3.290 nmol/min/mg protein | increase of expression of glutathione S-transferase ([4]; compound alone, 200 mg/kg i.p.): ≥ 70% | Glutathion S-transferase, Activity [4, 7]: 181% | Aniline hydroxylase, Amount (aniline hydroxylase): 0.659 nmol/min/mg protein | Aniline hydroxylase, Activity (aniline hydroxylase): 45% | inhibition of expression of aniline hydroxylase induced by INAH (aniline hydroxylase): superior inhibitory action | suppression of enzyme (P450 2E1) expression induced by INAH (P450 2E1): strongest suppression

NNC(=O)c1ccncc1 [INAH, isoniazid, reference compound]
p-Nitrophenol hydrolase, Activity [2]: 100% | p-Nitrophenol hydrolase, Amount [3]: 5.80 nmol/min/mg protein | Glutathion S-transferase, Amount [4, 5]: 2.008 nmol/min/mg protein | Glutathion S-transferase, Activity [4, 6]: 100% | Aniline hydroxylase, Amount (aniline hydroxylase): 1.453 nmol/min/mg protein | Aniline hydroxylase, Activity (aniline hydroxylase): 100%

Cc1c(-c2cnccn2)ssc1=S [Oltipraz]
cancer suppression (cancers): can suppress lung and stomach cancers | induction of enzymes involved in phase II reactions [1]: ability of inducing enzymes of phase II reactions

C=CCSCC=C [allylsulfide, diallylsulfide]
cancer suppression (cancers): strongly suppress liver and colon cancers | suppression of cytochrome P-450 2E1 induced by pyrazine (cytochrome P-450 2E1; inventors' submitted paper): completely suppress cytochrome P-450 2E1 induced by the action of pyrazine | effect on cytochrome P-450 2E1 expression (cytochrome P-450 2E1): strongly inhibits the expression of cytochrome P-450 2E1

Cc1cc(C(C)(C)C)c(O)c(C(C)(C)C)c1 [butylhydroxytoluene, 3,5-ditert-butyl-4-hydroxytoluene]
induction of enzymes involved in phase II reactions [1]: shows a anti-cancer activity by inducing enzymes involved in phase II reactions

c1cnccn1 [pyrazine]
effect on cytochrome P-450 2E1 expression (cytochrome P-450 2E1): inducing cytochrome P-450 2E1
